Laboratory results taken from PMC5825103 (PLoS ONE, 2018).

Experiments:
[1] = target: T1, MR-LBD binding to co-activator peptides (Homo sapiens, UniProt P08235, C808S); assay: co-factor peptide recruitment by surface plasmon resonance; settings: 50 μM compound, relative to dexamethasone, seven peptides
T1 construct: MR-LBD (amino acids 712–984) with the mutations C808S; 6-HN tag (thrombin cleavable) (N); made in house
T1 sequence (P08235 712-984 C808S): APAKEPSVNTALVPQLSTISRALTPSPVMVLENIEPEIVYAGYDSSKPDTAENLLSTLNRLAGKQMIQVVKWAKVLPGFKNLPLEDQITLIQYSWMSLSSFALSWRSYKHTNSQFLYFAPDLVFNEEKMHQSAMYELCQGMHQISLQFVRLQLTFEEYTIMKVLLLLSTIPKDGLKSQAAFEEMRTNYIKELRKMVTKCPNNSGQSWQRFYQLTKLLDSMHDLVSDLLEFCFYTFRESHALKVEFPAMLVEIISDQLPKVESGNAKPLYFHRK
Method: Co-activator recruitment of MR was determined using surface plasmon resonance (SPR) biosensor (Biacore 3000, GE Healthcare) by probing the level of receptor binding to seven surface-immobilized co-activator peptides. All peptides carried an N-terminal biotin for surface-immobilisation, the following peptides and sequences were used:
Prior to the SPR measurements, excess dexamethasone was removed by gel filtration via a passage through a PD10 column (GE Healthcare) equilibrated in SPR running buffer (10 mM HEPES, 50 mM NaCl, 0,005% P20, pH 7.6). […] The surface was prepared through immobilization of the biotinylated peptides on a streptavidin chip (GE Healthcare) to levels of 1000±300 RU. The binding level at equilibrium was monitored for all samples including the reference sample that contained remaining traces of dexamethasone. All data was normalized to this reference sample in order to quantify the effects on peptide binding without bias by receptor instability. The surface was regenerated with 0.5% (w/v) SDS after each injection.

[2] = test system: uni-nephrectomised db/db mice; assay: organ protection in db/db uni-nephrectomised mice; type: in vivo
Method: Obese diabetic male db/db mice (BKS.Cg-Dock7^m +/+ Lepr^db/J homozygotes) and their littermate male db/m mice were obtained from the Jackson Laboratory (Bar Harbor, ME, USA). […] Mice were subjected to right uninephrectomy at 8 weeks of age to hasten the development of diabetic nephropathy as described previously [43]. Db/m mice that received a uninephrectomy at 8 weeks of age served as the operation control. […] All surgery was performed under isoflurane anesthesia, and all efforts were made to minimize suffering.
The blood glucose level and glycosylated hemoglobin (HbA1C) levels were monitored in tail blood samples using a blood glucose meter (Glucometer Elite XL, Bayer Healthcare, Elkhart, IN, USA) and the DC 2000+ HbA1C kit (Bayer Healthcare), respectively, before treatment and at the time of sacrifice. Twenty-four-hour urine was obtained from each mouse after placement in metabolic cages before treatment and at the time of sacrifice. Urine albumin was measured using the DC2000+ microalbumin reagent kit (Bayer Healthcare).
Mice were sacrificed under isoflurane anesthesia. Blood samples were obtained by cardiac puncture for the measurements of plasma compound, K^+ and creatinine concentrations. Plasma K^+ levels were determined on a Radiometer ABL 700 blood gas analyser (Radiometer, Copnchagen DK). Plasma creatinine levels were determined by LC-MS/MS. Urine creatinine was measured by the Jaffe method (Creatinine FS, REF117119910021, DiaSys). Kidneys were perfused through the heart with cold PBS and then excised. One piece of renal cortex was fixed in 10% neutralized formalin for histological staining.
Formalin-fixed renal cortex tissues were subsequently embedded in paraffin. Three-micrometer sections were cut from the tissue blocks and stained with periodic acid-Schiff (PAS). The PAS-positive glomerular matrix was quantitated in a blinded fashion by a computer-assisted method as previously described [43]. At least 20 glomeruli from each individual mouse were assessed. The PAS-positive material area in the mesangium was normalized by that of the total glomerular tuft where the percentage of mesangial matrix occupying each glomerulus area was rated. Glomerular sclerosis index was graded from 0 to 4+ as follows: 0 represents no lesion, 1+ represents sclerosis of <25% of the glomerulus, while 2 =, 3+ and 4+ represent sclerosis of 25% to 50%, >50% to 75%, and >75% of the glomerulus, respectively. A whole kidney average sclerosis index was obtained by averaging scores from all glomeruli on one section.

| co-activator peptide binding [1] | Structure (SMILES) | FE K+ end ([2]; after 4 weeks treatment) | FE Na+ end ([2]; after 4 weeks treatment) | UAE w22 ([2]; after 4 weeks treatment) | p-K+ end ([2]; after 4 weeks treatment) | u-K+ end ([2]; after 4 weeks treatment) | u-Na+ end ([2]; after 4 weeks treatment) | u-Na+/K+ end ([2]; after 4 weeks treatment) | UAE w18 ([2]; before treatment, 18 weeks of age) | increased injury (glomerular ECM scoring) from week 18 to 22 ([2]; four week treatment) |
| --- | --- | --- | --- | --- | --- | --- | --- | --- | --- | --- |
| strongest peptide binding | C[C@]12CCC(=O)C=C1CC[C@@H]1[C@@H]2[C@@H](O)C[C@]2(C=O)[C@@H](C(=O)CO)CC[C@@H]12 [aldosterone] | – | – | – | – | – | – | – | – | – |
| – | CCOC(=O)[C@H](CCc1ccccc1)N[C@@H](C)C(=O)N1CCC[C@H]1C(=O)O [enalapril] | 15.6 ± 0.4% | 0.18 ± 0.01% | 583 ± 97 µg 24h-1 | 4.4 ± 0.1 mM | 0.90 ± 0.07 mmol/24h | 0.36 ± 0.03 mmol/24h | 0.40 ± 0.01 | 958 ± 184 µg 24h-1 | prevented |
